According to paper PMC9604064, “Comparative Assessment of the Inhibitory Potential of the Herbicide Glyphosate and Its Structural Analogs on RGD-Specific Integrins Using Enzyme-Linked Immunosorbent Assays” (International Journal of Molecular Sciences, 2022):
Entries after “also recorded” stand apart in the source; their conditions may differ. Read-outs that look alike come from different tables or passages of the source.

Columns and labels:
integrin αVβ3 [1] = target: T1, integrin αVβ3 (Homo sapiens, UniProt P05106+P06756); assay: biochemical; format: binding; details: for inhibition: read-out: Maximal Inhibition Achieved (converted)
T1 construct: purchased R&D Systems Inc. (Minneapolis, MN, USA)

integrin αllbβ3 = target: T2, integrin αllbβ3 (Homo sapiens, UniProt P05106+P08514); assay: biochemical; format: binding
T2 construct: purchased Enzyme Research Laboratories Ltd. (Swansea, UK)

integrin α5β1 = target: T3, integrin α5β1 (Homo sapiens, UniProt P05556+P08648); assay: biochemical; format: binding; details: for inhibition: at 22 mM (highest concentration), read-out: Maximal Inhibition Achieved (converted)
T3 construct: purchased R&D Systems Inc. (Minneapolis, MN, USA)

integrin αVβ3 [2] = target: T1, integrin αVβ3; assay: biochemical; format: binding; details: for inhibition: at 22 mM (highest concentration), read-out: Maximal Inhibition Achieved (converted)
[3] = cited from earlier work
integrin αVβ3 [4] = target: T1, integrin αVβ3; format: binding; details: immobilized SARS-CoV-2 S-protein; maximal inhibition, range up to 22 mM
integrin αVβ3 [5] = target: T1, integrin αVβ3; details: at 11 mM; previously developed assay; cited from earlier work
MC3T3-E1 cells = details: biosensoric measurement, concentration-dependent, via blocking RGD-specific integrins; cited from earlier work
[6] = parameters: method as in earlier work; details: not marked *; octanol/water; cited from earlier work
[7] = integrin αVβ3, immobilized RGD polymer, at 22 mM (highest concentration)
[8] = integrin αVβ3, immobilized RGD polymer, ligand range 0.1-22 mM
[9] = integrin αllbβ3, immobilized fibrinogen, at 22 mM, activation = higher absorbance than negative control, n. d. = not detected
[10] = integrin αllbβ3, immobilized fibrinogen, ligand range 0.1-22 mM
[11] = integrin α5β1, immobilized RGD polymer
[12] = integrin α5β1, immobilized RGD polymer, ligand range 0.1-22 mM
[13] = integrin αVβ3, immobilized vitronectin
[14] = integrin αVβ3, immobilized vitronectin, ligand range 0.1-22 mM

T3 sequence (P08648 42-995 limits assumed): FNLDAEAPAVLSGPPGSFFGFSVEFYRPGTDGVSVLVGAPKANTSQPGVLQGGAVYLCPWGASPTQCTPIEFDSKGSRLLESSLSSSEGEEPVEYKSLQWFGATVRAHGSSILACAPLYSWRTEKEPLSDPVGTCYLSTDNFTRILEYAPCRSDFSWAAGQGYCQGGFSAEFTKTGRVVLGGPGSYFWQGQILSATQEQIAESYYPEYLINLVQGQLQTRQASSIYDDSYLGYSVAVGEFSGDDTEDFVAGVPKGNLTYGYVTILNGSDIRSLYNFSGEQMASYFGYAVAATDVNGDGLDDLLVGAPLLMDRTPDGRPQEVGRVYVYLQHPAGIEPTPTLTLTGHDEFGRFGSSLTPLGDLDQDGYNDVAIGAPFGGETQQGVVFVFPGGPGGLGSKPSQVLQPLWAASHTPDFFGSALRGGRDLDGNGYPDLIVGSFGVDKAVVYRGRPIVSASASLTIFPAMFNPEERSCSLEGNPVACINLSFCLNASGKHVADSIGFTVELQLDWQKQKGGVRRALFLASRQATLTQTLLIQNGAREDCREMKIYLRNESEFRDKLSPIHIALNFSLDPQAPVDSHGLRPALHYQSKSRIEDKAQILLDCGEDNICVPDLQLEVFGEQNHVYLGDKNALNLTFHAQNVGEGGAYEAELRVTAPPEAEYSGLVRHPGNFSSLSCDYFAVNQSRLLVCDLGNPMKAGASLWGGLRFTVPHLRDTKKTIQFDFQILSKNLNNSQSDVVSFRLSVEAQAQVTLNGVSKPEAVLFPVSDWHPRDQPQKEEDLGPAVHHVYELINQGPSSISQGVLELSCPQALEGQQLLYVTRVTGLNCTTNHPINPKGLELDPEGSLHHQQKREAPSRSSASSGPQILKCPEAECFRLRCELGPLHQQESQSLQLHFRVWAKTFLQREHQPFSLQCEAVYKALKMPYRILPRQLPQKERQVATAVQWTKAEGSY
T3 sequence (P05556 21-728 limits assumed): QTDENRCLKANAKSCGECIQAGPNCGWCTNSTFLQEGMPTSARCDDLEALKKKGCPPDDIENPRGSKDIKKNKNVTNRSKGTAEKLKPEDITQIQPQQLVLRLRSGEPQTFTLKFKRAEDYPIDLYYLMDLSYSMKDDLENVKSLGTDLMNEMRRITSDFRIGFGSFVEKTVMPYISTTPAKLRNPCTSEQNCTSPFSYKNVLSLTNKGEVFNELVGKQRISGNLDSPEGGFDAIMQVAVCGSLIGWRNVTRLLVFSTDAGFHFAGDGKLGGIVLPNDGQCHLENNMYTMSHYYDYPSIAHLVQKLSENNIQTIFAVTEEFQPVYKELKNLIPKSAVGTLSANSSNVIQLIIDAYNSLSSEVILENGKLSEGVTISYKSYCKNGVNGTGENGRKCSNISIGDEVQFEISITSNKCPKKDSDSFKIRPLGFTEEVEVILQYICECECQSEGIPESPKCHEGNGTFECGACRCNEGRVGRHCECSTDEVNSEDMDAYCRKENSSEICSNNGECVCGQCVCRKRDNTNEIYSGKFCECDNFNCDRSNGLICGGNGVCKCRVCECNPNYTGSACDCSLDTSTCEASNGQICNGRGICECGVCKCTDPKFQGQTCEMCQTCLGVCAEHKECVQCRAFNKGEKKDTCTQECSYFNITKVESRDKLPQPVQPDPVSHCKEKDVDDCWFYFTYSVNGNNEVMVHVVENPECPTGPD
T2 sequence (P08514 32-887 limits assumed): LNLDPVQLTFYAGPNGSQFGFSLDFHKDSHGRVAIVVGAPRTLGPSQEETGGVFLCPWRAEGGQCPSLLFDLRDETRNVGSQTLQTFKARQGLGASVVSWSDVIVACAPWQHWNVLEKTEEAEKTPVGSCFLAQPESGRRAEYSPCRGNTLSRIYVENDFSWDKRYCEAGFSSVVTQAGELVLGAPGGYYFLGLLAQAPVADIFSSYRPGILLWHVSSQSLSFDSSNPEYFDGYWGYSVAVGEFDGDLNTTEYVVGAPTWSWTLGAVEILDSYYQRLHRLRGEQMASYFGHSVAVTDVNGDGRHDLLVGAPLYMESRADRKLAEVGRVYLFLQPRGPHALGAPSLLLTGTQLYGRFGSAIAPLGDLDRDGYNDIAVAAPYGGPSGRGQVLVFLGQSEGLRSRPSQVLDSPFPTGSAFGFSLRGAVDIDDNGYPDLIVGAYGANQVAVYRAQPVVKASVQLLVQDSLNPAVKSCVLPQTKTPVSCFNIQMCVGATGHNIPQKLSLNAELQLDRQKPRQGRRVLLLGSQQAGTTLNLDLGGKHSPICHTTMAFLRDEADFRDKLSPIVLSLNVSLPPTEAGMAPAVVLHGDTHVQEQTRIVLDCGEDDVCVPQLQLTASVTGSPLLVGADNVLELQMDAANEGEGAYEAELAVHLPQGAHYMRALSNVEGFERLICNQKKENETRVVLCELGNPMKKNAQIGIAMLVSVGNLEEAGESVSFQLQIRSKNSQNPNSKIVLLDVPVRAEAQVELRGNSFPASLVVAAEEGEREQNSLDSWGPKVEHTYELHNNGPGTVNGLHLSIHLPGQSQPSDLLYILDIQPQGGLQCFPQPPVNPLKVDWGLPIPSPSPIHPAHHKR
T2 sequence (P08514 891-1039 partner limits assumed): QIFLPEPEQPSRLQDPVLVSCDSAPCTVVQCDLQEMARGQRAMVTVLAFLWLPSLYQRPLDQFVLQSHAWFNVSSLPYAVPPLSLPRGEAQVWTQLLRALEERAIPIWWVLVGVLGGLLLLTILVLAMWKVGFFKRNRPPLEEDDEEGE
T2 sequence (P05106 27-788): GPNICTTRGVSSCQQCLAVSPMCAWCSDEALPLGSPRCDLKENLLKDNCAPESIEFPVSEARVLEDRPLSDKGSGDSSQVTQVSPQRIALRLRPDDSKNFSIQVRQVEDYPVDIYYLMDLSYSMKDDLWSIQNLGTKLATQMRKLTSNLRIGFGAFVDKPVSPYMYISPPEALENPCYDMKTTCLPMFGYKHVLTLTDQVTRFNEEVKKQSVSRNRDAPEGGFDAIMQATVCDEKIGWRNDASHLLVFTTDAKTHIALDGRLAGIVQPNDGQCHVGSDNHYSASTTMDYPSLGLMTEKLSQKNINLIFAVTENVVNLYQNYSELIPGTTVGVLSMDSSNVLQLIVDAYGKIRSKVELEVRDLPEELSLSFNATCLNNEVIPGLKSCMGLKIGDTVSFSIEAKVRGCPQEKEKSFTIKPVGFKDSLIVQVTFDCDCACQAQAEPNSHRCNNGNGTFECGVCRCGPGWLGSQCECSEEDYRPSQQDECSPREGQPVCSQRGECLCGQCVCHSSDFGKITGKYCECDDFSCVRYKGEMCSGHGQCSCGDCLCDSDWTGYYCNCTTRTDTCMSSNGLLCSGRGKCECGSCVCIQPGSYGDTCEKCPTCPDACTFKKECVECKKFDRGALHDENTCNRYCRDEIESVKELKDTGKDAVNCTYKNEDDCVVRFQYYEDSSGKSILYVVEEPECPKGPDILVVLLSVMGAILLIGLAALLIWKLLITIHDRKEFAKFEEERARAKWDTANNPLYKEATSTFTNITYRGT

Row | Molecule | inhibition (integrin αVβ3 [1]; [7]) [%] | IC50 (integrin αVβ3 [1]; [8]) [mM] | IC50 (integrin αllbβ3; [10]) [mM] | inhibition (integrin α5β1; [11]) [%] | IC50 (integrin α5β1; [12]) [mM] | inhibition (integrin αVβ3 [2]; [13]) [%] | IC50 (integrin αVβ3 [2]; [14]) [mM] | also measured
1 | CC(=O)NCC(=O)O [Acetylglycine] | 46.8 | > 22 | > 22 | 98.9 | 5.8 ± 0.9 | 58.5 | 9.2 ± 1 | Maximal Inhibition Achieved (integrin αllbβ3; [9]): activation; Maximal Inhibition Achieved (integrin αllbβ3; integrin αllbβ3, immobilized fibrinogen, at 22 mM, activation = higher absorbance than negative control, n. d. = not detected, listed as acetylglycine): high activation
2 | NCP(=O)(O)O [Aminomethylphosphonic acid (AMPA), aminomethylphosphonic acid] | 95.9 | 1.3 ± 0.2 | > 22 | 44.8 | > 22 | 75.3 | 1.5 ± 0.4 | Maximal Inhibition Achieved (integrin αllbβ3; [9]): activation; Maximal Inhibition Achieved (integrin αllbβ3; integrin αllbβ3, immobilized fibrinogen, at 22 mM, activation = higher absorbance than negative control, n. d. = not detected, listed as AMPA): activation; also recorded: activated; Water Solubility ([3]; 20 °C): 56 (20 °C) g/L
3 | NCC(=O)O [Glycine] | – | – | – | – | – | – | – | IC50 (integrin αVβ3 [1]): > 22 mM; IC50 (integrin αllbβ3): > 22 mM; IC50 (integrin α5β1): > 22 mM; Maximal Inhibition Achieved (integrin α5β1): >22 (22.1 ± 3.3%); IC50 (integrin αVβ3 [2]): > 22 mM
4 | O=C(O)CNCP(=O)(O)O [Glyphosate, N-(phosphonomethyl)glycine] | 100 | 2.7 ± 0.5 | > 22 | 85.7 | 9.7 ± 3.2 | 44.8 | > 22 | Inhibition of binding of αVβ3 to S-protein (integrin αVβ3 [4]): 35.6 ± 4.4%; inhibition (integrin αllbβ3; integrin αllbβ3, immobilized fibrinogen, at 22 mM, activation = higher absorbance than negative control, n. d. = not detected, read-out: Maximal Inhibition Achieved): 40.2%; Inhibition of RGD-binding capability of αVβ3 integrin (integrin αVβ3 [5]): 96.3 ± 3.2%; Adhesion of MC3T3-E1 cells to RGD motif (MC3T3-E1 cells): significantly reduced; Water Solubility ([3]; pH 7.0): 157 g/L
5 | O=C(O)CNCC(=O)O [Iminodiacetic acid] | 24.6 | > 22 | > 22 | 8 | > 22 | 52.4 | 11.5 ± 1.5 | Water Solubility ([3]; 5 °C): 24.3 (5 °C) g/L
6 | CC(=O)N(CC(=O)O)CP(=O)(O)O [N-acetylglyphosate] | – | > 22 | > 22 | 15 | > 22 | 47.5 | > 22 | inhibition at 22000 µM (integrin αVβ3 [1]; integrin αVβ3, immobilized RGD polymer, at 22 mM (highest concentration), read-out: Maximal Inhibition Achieved): 40.6%; Water Solubility ([3]; temperature or pH not given): slight
7 | CNCC(=O)O [Sarcosine] | 35 | > 22 | > 22 | 13.4 | > 22 | 37.9 | > 22 | Water Solubility ([3]; 20 °C): 89.1 (20 °C) g/L; Clog Po/w [6]: −3.2
8 | Glyphosate isopropylammonium salt | – | – | – | – | – | – | – | Water Solubility ([3]; temperature or pH not given): 1050 g/L; Clog Po/w [6]: −4.16
